Source: ChEMBL document CHEMBL1126235, “Benzothiadiazine dioxides: A new class of potent angiotensin-II (AT1) receptor antagonists” (Bioorg Med Chem Lett, 1992)

How the values were obtained:
[1] = species: Oryctolagus cuniculus; test: Compound was tested for functional antagonism of angiotensin-II induced contraction in isolated rabbit aorta
[2] = biological target: T1, Angiotensin II receptor (AT-1) type-1 (Rattus norvegicus, UniProt P29089+P25095); test: Binding against Angiotensin II receptor in a radioligand binding assay using [125I]-Sar1-Ile8 angiotensin-II as radioligand in rat adrenal cortical membranes; format: cell membranes
T1 sequence (P29089 whole entry): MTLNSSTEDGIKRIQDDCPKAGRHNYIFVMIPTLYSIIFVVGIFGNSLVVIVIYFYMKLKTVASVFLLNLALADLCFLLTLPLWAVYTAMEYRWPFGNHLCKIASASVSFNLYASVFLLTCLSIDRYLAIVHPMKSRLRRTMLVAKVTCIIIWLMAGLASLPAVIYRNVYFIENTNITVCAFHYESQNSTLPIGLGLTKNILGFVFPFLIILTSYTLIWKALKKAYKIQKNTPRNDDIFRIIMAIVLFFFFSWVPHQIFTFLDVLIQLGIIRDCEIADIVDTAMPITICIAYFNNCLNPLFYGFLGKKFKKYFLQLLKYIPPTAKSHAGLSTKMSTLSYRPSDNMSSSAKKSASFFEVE
T1 sequence (P25095 whole entry): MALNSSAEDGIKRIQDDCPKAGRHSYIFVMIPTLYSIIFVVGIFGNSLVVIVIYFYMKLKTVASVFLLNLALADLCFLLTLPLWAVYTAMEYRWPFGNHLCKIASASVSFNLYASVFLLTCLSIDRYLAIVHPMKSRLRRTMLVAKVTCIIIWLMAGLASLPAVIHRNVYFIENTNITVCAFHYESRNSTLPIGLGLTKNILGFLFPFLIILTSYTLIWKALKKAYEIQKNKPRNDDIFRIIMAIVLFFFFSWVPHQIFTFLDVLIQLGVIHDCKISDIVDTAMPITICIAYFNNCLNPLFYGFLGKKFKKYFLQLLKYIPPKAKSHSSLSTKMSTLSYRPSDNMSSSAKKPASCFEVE

Structure (SMILES)	Ki [2]	Kb [1]
CCSC1=NS(=O)(=O)c2cc(C)cnc2N1Cc1ccc(-c2ccccc2-c2nn[nH]n2)cc1	0.8 nM	0.6 nM
CCCSC1=NS(=O)(=O)c2ccccc2N1Cc1ccc(-c2ccccc2-c2nn[nH]n2)cc1	4.8 nM	93 nM
CCCSC1=NS(=O)(=O)c2cc(C)cnc2N1Cc1ccc(-c2ccccc2-c2nn[nH]n2)cc1	0.6 nM	11 nM
CCCCc1nc(Cl)c(CO)n1Cc1ccc(-c2ccccc2-c2nnn[nH]2)cc1 [LOSARTAN]		2.6 nM
CCCSC1=NS(=O)(=O)c2ccc(C(=O)O)cc2N1Cc1ccc(-c2ccccc2-c2nn[nH]n2)cc1	8.5 nM	0.08 nM
CCCCC1=NS(=O)(=O)c2ccccc2N1Cc1ccc(-c2ccccc2C(=O)O)cc1	550 nM	130 nM

The next lines start with results.

Ki [2]	Structure (SMILES)	Kb [1]
180 nM	CCCSC1=NS(=O)(=O)c2ccccc2N1Cc1ccc(-c2ccccc2C(=O)O)cc1	20 nM
4900 nM	CCCSC1=Nc2ccccc2S(=O)(=O)N1Cc1ccc(-c2ccccc2C(=O)O)cc1	1200 nM
230 nM	CCCCC1=Nc2ccccc2S(=O)(=O)N1Cc1ccc(-c2ccccc2C(=O)O)cc1	160 nM
57 nM	CCCSC1=Nc2ccccc2S(=O)(=O)N1Cc1ccc(-c2ccccc2-c2nn[nH]n2)cc1	640 nM
